Structures can show the parent of a compound that is named as a salt.
Legend:
H. zea = conditions: hollow fiber formulation; 12-ha maize field; cited from earlier work
moths = experiment: Brazilian cotton field trial, compared with grower's standard methomyl cover spray (dead moth counts); assay type: in vivo, noctuid moths; conditions: methomyl alone sprayed over the entire crop, grower's standard rate; for 5 days after the application
Experimental: Initial work on products of the present disclosure consisted of a blend of oleoresins designed to mimic the attractive volatiles used by adult noctuids to identify sugar-rich sources of floral nectar. This blend also contains a number of sugar-based and proteic phagostimulants (feeding stimulants) to encourage the target insects to feed on the formulation to full engorgement. When a pesticide is added to this product, these components encourage megadose intake of the incorporated killing agent. This minimizes the risk of sub-lethal exposure, a contributing factor to the development of resistance. To further reduce the risk of resistance, the product may be designed as a tank mix to be blended with a small dose of the user's pesticide of choice just prior to application. This characteristic makes the product an extremely adaptable pest management solution and lends itself well to pesticide rotation programs. The product was originally tested in cotton and soybean fields in South America, where noctuid pests pose a significant economic threat to multiple crops. […]

| Structure (SMILES) | rate of mating (H. zea) | dead moths recovered (moths) |
| --- | --- | --- |
| CCCC/C=C\CCCCCCCCOC=O [(Z)-9-tetradecenyl formate] | cut in half |  |
| CNC(=O)ON=C(C)SC [methomyl] |  | no or very few dead moths |
